# In patent US9295672B2, “Optically active pyrazolylaminoquinazoline, and pharmaceutical compositions and methods of use thereof” (Ambit Biosciences Corp., priority 2010, dated 2016):
# Experiments:
# [1] = target: phosphodiesterase PDE4; assay: Inhibition of phosphodiesterase PDE4; type: biochemical; settings: human U937 cells; read-out: IC50 against phosphodiesterase PDE4
# Method: Human U937 cells were used in this assay. The final DMSO concentration in the assay was about 1%. The assay was pre-incubated at 25° C. for 15 min and then incubated at 25° C. for 20 min in an incubation buffer (50 mM Tris-HCl, pH 7.5, 5 mM MgCl2). The assay was quantitated by measuring the amount of [^3H]adenosine.
# [2] = Solubility tests of the ketone substrate in solvents; type: physicochemical; settings: 20 ° C.
# Method: Solubility tests were conducted by adding (4-fluorophenyl)(4-(5-methyl-4H-pyrazol-3-ylamino)quinazolin-2-yl)methanone in small portions to a number of solvents until a suspended solid persisted. A number of solvents were selected for this study based on their suitability as co-solvents for the reaction.
# [3] = Solubility tests of ketone, alcohol and their mixture in IPA/DMSO/water at 70° C.; type: physicochemical; settings: 1.113 g of material at 70° C., IPA 4 mL, Water 0.5 mL
# Method: The aim of these experiments was to find the minimum amount of DMSO necessary to dissolve reagents and create homogeneous reaction mixture. One tube contained starting material, the second one a mixture of starting material and product (1/1) to simulate situation when reaction is half complete and the third tube contained product. Experiments were started in 5 mL of IPA/DMSO/water (8/1/1), where none of the mixtures was soluble at 70° C. DMSO was then added dropwise until full solubility could be reached. […] At these conditions, starting material was still partially undissolved. This experiment was used to determine the necessary amounts of DMSO to create a homogeneous reaction mixture (upon keeping the original quantities of IPA and water).
# [4] = target: human adenosine A3 receptor (Homo sapiens (Human), UniProt P0DMS8); assay: Adenosine A3 receptor radioligand binding assay ([125I] AB-MECA)
# human adenosine A3 receptor, sequence (P0DMS8 whole entry): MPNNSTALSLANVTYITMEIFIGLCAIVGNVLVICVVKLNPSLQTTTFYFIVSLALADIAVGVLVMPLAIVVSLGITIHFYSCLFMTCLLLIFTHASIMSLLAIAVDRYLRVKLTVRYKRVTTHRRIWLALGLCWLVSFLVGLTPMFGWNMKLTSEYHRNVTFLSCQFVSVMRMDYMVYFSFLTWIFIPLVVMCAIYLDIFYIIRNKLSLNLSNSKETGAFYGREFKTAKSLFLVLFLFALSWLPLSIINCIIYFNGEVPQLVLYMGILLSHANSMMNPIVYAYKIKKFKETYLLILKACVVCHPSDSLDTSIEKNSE
# Method: Incubations of a range of concentration of each compound were carried out in duplicates for 1 h at 25° C. in 25 mM HEPES, pH 7.4, 5 mM MgCl2, 1 mM CaCl2, 0.1% BSA, in the presence of 0.5 nM [^125I] AB-MECA. Non-specific binding was determined in the presence of 1 μM IB-MECA.
# [5] = cynomolgus monkey, in vivo
Compound,Result (solubility test) ([3]; DMSO 0.5 mL),Result (solubility test) ([3]; DMSO 5.5 mL),Result (solubility test) ([3]; DMSO 7.5 mL),Hill Coefficient [4],also measured
Cc1cc(Nc2nc(C(O)c3ccc(F)cc3)nc3ccccc23)n[nH]1 (racemic) [Racemate],–,–,–,–,IC50 [1]: 2530 nM
CC1=NN=C(Nc2nc(C(=O)c3ccc(F)cc3)nc3ccccc23)C1 [(4-fluorophenyl)(4-(5-methyl-4H-pyrazol-3-ylamino)quinazolin-2-yl)methanone],–,–,–,–,Solubility ([2]; solvent DMSO): 12000 to 149000 µg/mL; Solubility ([2]; solvent EtOAc): <6000 µg/mL; Solubility ([2]; solvent IPA-H2O (9:1)): <7000 µg/mL; Solubility ([2]; solvent PhMe): <9000 µg/mL; Solubility ([2]; solvent THF): <17000 µg/mL
CCO [Alcohol],Not dissolved,Dissolved,Dissolved,–,–

# Continued, in another order:
Result (solubility test) ([3]; DMSO 0.5 mL),Result (solubility test) ([3]; DMSO 5.5 mL),Result (solubility test) ([3]; DMSO 7.5 mL),Hill Coefficient [4],Compound,also measured
Not dissolved,Not dissolved,Not dissolved,–,Cc1cc(Nc2nc(C(=O)c3ccc(F)cc3)nc3ccccc23)n[nH]1 [Ketone],–
–,–,–,1.14,Cc1cc(Nc2nc([C@H](O)c3ccc(F)cc3)nc3ccccc23)n[nH]1 [R-isomer],share of the Cmax and AUC values determined for the racemic compound ([5]; male): over 85%
–,–,–,0.811,Cc1cc(Nc2nc([C@@H](O)c3ccc(F)cc3)nc3ccccc23)n[nH]1 [S-isomer],proportion of both enantiomers in plasma ([5]; po): almost equal proportions
